Measured values: ChEMBL document CHEMBL1147347, “Luffariolides F and G, new manoalide derivatives from the Okinawan marine sponge Luffariella sp” (J Nat Prod, 1993)
In brackets after ≈: the same amount, converted by molar mass.

Key:
[1] = tested on: KB; experiment: Growth inhibition of human KB cells at 10 ug/ml; type: functional; conditions: read-out: GI
[2] = tested on: L1210; experiment: Cytotoxicity against mouse L1210 cells; type: functional, cell-based
[3] = tested on: KB; experiment: Cytotoxicity against human KB cells; type: functional, cell-based

Row | SMILES | inhibition of growth at 10 µg/mL [1] | IC50 [2] | IC50 [3]
1 | CC1=C(CC/C(C)=C/CC/C(=C/C[C@H]2OC(=O)C=C2CO)CO)C(C)(C)CCC1 | 36.9% | 1.7 µg/mL (≈ 4.22 µM) | –
2 | CC1=C(CC/C(C)=C/CC/C(=C/CC2OC(=O)C=C2CO)CO)C(C)(C)CCC1O (centres undefined) [LUFFARIOLIDE F] | 33.4% | 1.6 µg/mL (≈ 3.82 µM) | –
3 | CC(=O)OC/C(=C\C[C@H]1OC(=O)C=C1CO)CC/C=C(\C)CCC1=C(C)CCCC1(C)C | 44.8% | 3 µg/mL (≈ 6.75 µM) | –
4 | CC1=C(CCC(C)(O)/C=C/C/C(=C/CC2OC(=O)C=C2CO)CO)C(C)(C)CCC1 (centres undefined) [LUFFARIOLIDE G] | 30.8% | 2.8 µg/mL (≈ 6.69 µM) | –
5 | CC1=C(CC/C(C)=C/CCC2=CC[C@H](C3=CC(=O)O[C@H]3O)O[C@H]2O)C(C)(C)CCC1 [MANOALIDE] | – | 0.032 µg/mL (≈ 0.0768 µM) | 0.31 µg/mL (≈ 0.744 µM)
6 | CC1=C(CC/C(C)=C/CC/C(C=O)=C\C[C@H]2OC(=O)C=C2CO)C(C)(C)CCC1 | – | 1 µg/mL (≈ 2.5 µM) | 5.6 µg/mL (≈ 14 µM)
7 | CC1=C(CC/C(C)=C/CC/C(C=O)=C\C=C\C2=CC(=O)O[C@H]2O)C(C)(C)CCC1 | – | 0.45 µg/mL (≈ 1.13 µM) | 2.1 µg/mL (≈ 5.27 µM)
